Active and inactive are the calls of the source. How the calls were made is not given here.
Tested on: Leishmania donovani growth inhibition
Test: Leishmania donovani growth inhibition (AID 1159560);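 further: parasites exposed to compound for 72 h before the viability read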

Q: Which IC50 does the source give for `COc1ccc(CNc2cc(C3CC3)nc(-c3nccn3C)n2)cc1` here?
A: 2 µM

Q: For `CC1CCCCN1C(=O)NCCc1coc(-c2ccc(F)cc2)n1` (stereo not given), which IC50 is on record?
A: > 50 µM (inactive)

Q: With `C[C@@H](Oc1cc(-n2cnc3ccc(O[C@H]4CCNC4)cc32)sc1C(N)=O)c1ccccc1Cl` as the compound, how does the IC50 read?
A: > 50 µM (inactive)

Q: For `COc1cccc(CCNC(=O)C(c2cn[nH]c2)N2CCN(c3ccc(Cl)cc3)CC2)c1` (stereo not given), which IC50 is on record?
A: 13 µM

Q: `COc1cc(-c2nc(N3CCOCC3)sc2-c2ccnc(NC3CCOCC3)n2)ccc1Cl` was tested. Which IC50 did it give?
A: > 50 µM (inactive)

Q: How did the IC50 turn out when `NC(=O)c1ccsc1NC(=O)c1ccc([N+](=O)[O-])s1` was run?
A: 0.32 µM

Q: How did the IC50 turn out when `Cc1nc2c(-c3n[nH]c(-c4ccccc4N)n3)cccn2c1C` was run?
A: 6.3 µM

Q: Which IC50 does the source give for `O=C(NC(c1ccc(Cl)cc1)c1cnccn1)C1CCN(C(=O)Nc2cccc(C(F)(F)F)c2)CC1` (stereo not given) here?
A: 20 µM

Q: For `CN1C(=O)c2ccccc2Sc2ccc(NC(=O)NCc3ccco3)cc21`, which IC50 is on record?
A: > 50 µM (inactive)

Q: How did the IC50 turn out when `COc1ccc(NS(=O)(=O)c2cc(-c3cc(C)[nH]n3)ccc2C)cc1OC` was run?
A: 1 µM

Q: `COc1ccc(S(=O)(=O)Nc2ccc(C(=O)Nc3nc(-c4ccccn4)cs3)cc2)cc1` was tested. Which IC50 did it give?
A: 1 µM

Q: How did the IC50 turn out when `CN(C)Cc1ccc(N2CCC(NS(=O)(=O)c3ccc(Cl)cc3)CC2)cc1` was run?
A: 40 µM

Q: How did the IC50 turn out when `Cn1c(CC(=O)NNC(=O)c2ccc3ccccc3n2)nc2ccccc21` was run?
A: 6.3 µM

Q: Which IC50 does the source give for `Cc1ccc2c(c1)-c1onc(C(=O)N3CCCCC3c3cccnc3)c1CO2` (stereo not given) here?
A: 32 µM

Q: For `CCOC(=O)c1cn[nH]c1S(=O)(=O)N1CCC1c1ccccc1` (stereo not given), which IC50 is on record?
A: > 50 µM (inactive)

Q: Which IC50 does the source give for `c1ccc2c(CCOc3nccnc3-c3ccncc3)c[nH]c2c1` here?
A: 5 µM

Q: `Cc1[nH]n2c(=O)c3c(nc2c1-c1ccc(Br)cc1)CCCC3` was tested. Which IC50 did it give?
A: 10 µM

Q: With `Cc1nn(-c2nc(N)nc(-c3ccccn3)n2)c(N)c1-c1ccccc1` as the compound, how does the IC50 read?
A: 5 µM

Q: How did the IC50 turn out when `O=C(CC1(O)C(=O)N(Cc2cccs2)c2ccc(Br)cc21)c1cccnc1` (stereo not given) was run?
A: > 50 µM (inactive)

Q: For `CCc1cccc(CC)c1-n1c(SCC(=O)N2CC(=O)Nc3ccccc32)nnc1-c1cccnc1`, which IC50 is on record?
A: 40 µM

Q: `COc1ccc(NS(=O)(=O)c2ccc(S(=O)(=O)N(C)C3CCCCC3)cc2)c2ncccc12` was tested. Which IC50 did it give?
A: > 50 µM (inactive)

Q: For `c1cc(-c2ncc(-c3ccn[nH]3)s2)ccn1`, which IC50 is on record?
A: > 50 µM (inactive)

Q: `N#Cc1cccc(CN2CCC(N(Cc3cccnc3)C(=O)c3cc(F)c(F)cc3F)CC2)c1` was tested. Which IC50 did it give?
A: > 50 µM (inactive)

Q: Which IC50 does the source give for `CN(C(=O)Nc1ccc2c(c1)CCN(C1CCC1)CC2)c1ccc(C#N)cc1` here?
A: 40 µM

Q: With `CN(CC1CCCO1)S(=O)(=O)c1ccc(C(=O)Nc2nc(-c3ccccn3)cs2)cc1` (stereo not given) as the compound, how does the IC50 read?
A: 1.3 µM

Q: Which IC50 does the source give for `CC(C)(C)C(Cn1ccnc1)NC(=O)c1ccc2nc(C3CC3)oc2c1` (stereo not given) here?
A: 20 µM

Q: With `O=C(O)[C@H]1C[C@@H]1c1ccc(-c2ccc(CN(CCc3ccccn3)C(=O)C3CCC3)cc2)cc1` as the compound, how does the IC50 read?
A: 25 µM

Q: For `CN(Cc1ccccc1)Cc1nnnn1C1CCN(Cc2ccc(-n3ccnc3)cc2)CC1`, which IC50 is on record?
A: > 50 µM (inactive)

Q: With `COc1ccc(Oc2ccc(C(C)N(C)c3ncc4c(N)nc(N)nc4n3)cc2)cc1` (stereo not given) as the compound, how does the IC50 read?
A: 0.04 µM

Q: `O=C(Nc1ncc([N+](=O)[O-])s1)C1CC1` was tested. Which IC50 did it give?
A: 40 µM

Q: `CCCc1cc(C(=O)Nc2ncc(-c3cccc(Br)c3)n2C)n[nH]1` was tested. Which IC50 did it give?
A: 6.3 µM

Q: With `O=C(C1CCCCC1)N1CCN(c2nnc(-c3ccccc3)c3ccccc23)CC1` as the compound, how does the IC50 read?
A: > 50 µM (inactive)

Q: With `COc1ccc(C(=O)Nc2ccc(NC(=O)CO)cc2)cc1` as the compound, how does the IC50 read?
A: > 50 µM (inactive)

Q: How did the IC50 turn out when `Cc1ccccc1OCC(=O)N1CCCN(c2cccnn2)CC1` was run?
A: 13 µM

Q: How did the IC50 turn out when `CNc1cc(Cn2c(C(=O)c3cc(C)cc(Cl)c3)c(C(C)C)c(=O)[nH]c2=O)ccn1` was run?
A: > 50 µM (inactive)

Q: For `Cc1c(C#N)c([N+](=O)[O-])nn1Cc1cccc(Cl)c1Cl`, which IC50 is on record?
A: > 50 µM (inactive)

Q: With `O=C(NCC(c1cccs1)N1CCOCC1)c1ccc([N+](=O)[O-])o1` (stereo not given) as the compound, how does the IC50 read?
A: 32 µM

Q: With `O=C(c1cccc(Nc2ncc(-c3ccc4c(c3)OCO4)cn2)c1)N1CCOCC1` as the compound, how does the IC50 read?
A: 2 µM

Q: With `COc1ccc(Nc2nc(-c3ccccn3)cs2)c(OC)c1` as the compound, how does the IC50 read?
A: 6.3 µM

Q: How did the IC50 turn out when `COc1ccc(NS(=O)(=O)c2cccc(NC(=O)c3cc(F)cc(F)c3)c2)cc1` was run?
A: 3.2 µM

From PubChem BioAssay AID1159560 (GlaxoSmithKline (GSK), 2015)
